Data set [1] has as its system mice. The following applies: cited from earlier work.
Data set [2] can be described thus: Solubility. The format is physicochemical. As to the method: The troches were made essentially by conventional candy making techniques. The polysaccharide and starch were first dry blended to substantial uniformity. About 3-4% by weight of water was added to the dry powder to form a thick paste. This paste was then heated to produce a uniform viscous melt. Maltol or ethyl maltol were added to this melt as saturated solutions in boiling water. The water solubility of the gamma pyrones is somewhat limited. For example, one gram of ethyl maltol requires 6 ml of water at 100° C. to dissolve completely. Since the water content of the mixture must be kept low, the amount of ethyl maltol which can be incorporated is about 3-4%, and preferably about 1% by weight of the troche. […] Alternatively, the entire process can be carried out in a suitable pressure apparatus.

Each structure is given as a SMILES string. Converted amounts (≈) assume the structure as drawn.

As for `CCc1occc(=O)c1O` [ethyl maltol, 3-hydroxy-2-ethyl-4-pyrone], the “acute LD50” value in data set [1] is 910 mg per kg. Besides, the “solubility in alcoholic solution” value in data set [2] (compared with water) is given as “somewhat more soluble”. In addition, in data set [2] (one gram, water at 100° C., read-out: water to dissolve one gram completely (converted)), the solubility is 167 mg/mL (≈ 1190 mM).
